How the values were obtained:
cocklebur = experiment: Test B pre-/postemergence herbicide test; assay type: in vivo, Xanthium strumarium; conditions: for Plant response rating (0 to 100 scale), Cocklebur: 0 is no effect, 100 is complete control, preemergence; for Cocklebur plant response rating: scale 0 (no effect) to 100 (complete control)
Outline: (§1)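 Visual rating, 0 (no effect) to 100 (complete control), versus untreated controls after 13–15 d in greenhouse. Pre- and postemergence applications (postemergence plants 2–18 cm, 1–4 leaves); flooded paddy arm at 2-leaf stage. Compounds in non-phytotoxic solvent plus surfactant.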

wild oat = experiment: Test B postemergence herbicide test; assay type: in vivo, Avena fatua; conditions: scale 0 (no effect) to 100 (complete control)
Outline: (§2)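 Plants grow to 1- to 4-leaf stage (2–18 cm) for postemergence spraying, or to 2-leaf stage for the paddy test. Formulated compound is applied. Greenhouse holding lasts 13–15 days. Response is scored visually relative to controls, 0 no effect to 100 complete control; a dash means no result.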

ducksalad = experiment: Test B flooded paddy test; assay type: in vivo, Heteranthera limosa; conditions: 1000 g ai/ha, scale 0 to 100 (0 no effect, 100 complete control)
Outline: (§3)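 Visual ratings, 0 (no effect) to 100 (complete control), made versus controls after 13–15 d greenhouse. Paddy plants treated at 2-leaf stage; postemergence plants at 1- to 4-leaf stage, 2–18 cm tall.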

barnyardgrass [1] = experiment: Test B pre-/postemergence herbicide test; assay type: in vivo, Echinochloa crus-galli; conditions: for Plant response rating (0 to 100 scale), Barnyardgrass: 0 is no effect, 100 is complete control, preemergence; for Barnyardgrass plant response rating: scale 0 (no effect) to 100 (complete control)
Outline: as §1

morningglory = experiment: Test B pre-/postemergence herbicide test; assay type: in vivo, Ipomoea coccinea; conditions: for Plant response rating (0 to 100 scale), Morningglory: 0 is no effect, 100 is complete control, preemergence; for Morningglory plant response rating: scale 0 (no effect) to 100 (complete control)
Outline: as §1

giant foxtail = experiment: Test B pre-/postemergence herbicide test; assay type: in vivo, Setaria faberi; conditions: for Plant response rating (0 to 100 scale), Foxtail, Giant: 0 is no effect, 100 is complete control, preemergence; for Foxtail, Giant plant response rating: scale 0 (no effect) to 100 (complete control)
Outline: (§4)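 Response was scored visually 13 to 15 days after treatment against untreated greenhouse controls, 0 meaning no effect and 100 complete control. Formulations (solvent mixture plus surfactant) went onto soil after planting, onto foliage of 1- to 4-leaf plants, and onto 2-leaf plants in a flooded paddy set including rice and barnyardgrass.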

large crabgrass = experiment: Test B pre-/postemergence herbicide test; assay type: in vivo, Digitaria sanguinalis; conditions: for Plant response rating (0 to 100 scale), Crabgrass, Large: 0 is no effect, 100 is complete control, preemergence; for Crabgrass, Large plant response rating: scale 0 (no effect) to 100 (complete control)
Outline: as §4

corn = experiment: Test B pre-/postemergence herbicide test; assay type: in vivo, Zea mays; conditions: for Plant response rating (0 to 100 scale), Corn: 0 is no effect, 100 is complete control, preemergence; for Corn plant response rating: scale 0 (no effect) to 100 (complete control)
Outline: as §4

Surinam grass = experiment: Test B pre-/postemergence herbicide test; assay type: in vivo, Urochloa decumbens; conditions: for Plant response rating (0 to 100 scale), Surinam Grass: 0 is no effect, 100 is complete control, preemergence; for Surinam Grass plant response rating: scale 0 (no effect) to 100 (complete control)
Outline: as §4

velvetleaf = experiment: Test B pre-/postemergence herbicide test; assay type: in vivo, Abutilon theophrasti; conditions: for Plant response rating (0 to 100 scale), Velvetleaf: 0 is no effect, 100 is complete control, preemergence; for Velvetleaf plant response rating: scale 0 (no effect) to 100 (complete control)
Outline: as §4

rice = experiment: Test B flooded paddy test; assay type: in vivo, Oryza sativa; conditions: 1000 g ai/ha, scale 0 to 100 (0 no effect, 100 complete control)
Outline: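 Postemergence plants were sprayed with formulated test chemicals at 2 to 18 cm height (1- to 4-leaf stage); paddy species were grown to the 2-leaf stage. After 13 to 15 days in a greenhouse, injury was rated visually against untreated controls on a 0–100 scale (0 = no effect, 100 = complete control).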

wheat = experiment: Test B postemergence herbicide test; assay type: in vivo, Triticum aestivum; set-up: key to Wheat plant response rating: 0 = no effect, 100 = complete control
Outline: as §2

pigweed = experiment: Test B pre-/postemergence herbicide test; assay type: in vivo, Amaranthus retroflexus; conditions: for Plant response rating (0 to 100 scale), Pigweed: 0 is no effect, 100 is complete control, preemergence; for Pigweed plant response rating: scale 0 (no effect) to 100 (complete control)
Outline: as §4

barnyardgrass [2] = experiment: Test B flooded paddy test; assay type: in vivo, Echinochloa crus-galli; conditions: 1000 g ai/ha, scale 0 to 100 (0 no effect, 100 complete control)
Outline: as §3

blackgrass = experiment: Test B postemergence herbicide test; assay type: in vivo, Alopecurus myosuroides; conditions: scale 0 (no effect) to 100 (complete control)
Outline: as §3

lambsquarters = experiment: Test B pre-/postemergence herbicide test; assay type: in vivo, Chenopodium album; conditions: for Plant response rating (0 to 100 scale), Lambsquarters: 0 is no effect, 100 is complete control, preemergence; for Lambsquarters plant response rating: scale 0 (no effect) to 100 (complete control)
Outline: as §4

[3] = tested on: small flower umbrella sedge; experiment: Test B flooded paddy test; assay type: in vivo, Cyperus difformis; conditions: 1000 g ai/ha, scale 0 to 100 (0 no effect, 100 complete control)
Outline: as §3

[4] = 125 g ai/ha, visual rating, postemergence
[5] = 125 g ai/ha, visual rating, scale 0 (no effect) to 100 (complete control), postemergence
[6] = 500 g ai/ha, scale 0 to 100, 0 no effect, 100 complete control, preemergence
[7] = Postemergence, 500 g ai/ha, scale 0 (no effect) to 100 (complete control)

## CCNC(=O)c1ccc(F)c(NC(=O)c2nn(C(C)C)nc2C)c1 [Compound 401]
cocklebur; 125 g ai/ha
  Plant response rating (0 to 100 scale), Cocklebur: 0
cocklebur; [4]
  Cocklebur plant response rating: 0
cocklebur; Postemergence, 500 g ai/ha
  Cocklebur plant response rating: 0
Wild oat; [4]
  Oat, Wild plant response rating: 0
Wild oat; Postemergence, 500 g ai/ha
  Oat, Wild plant response rating: 0
ducksalad
  Ducksalad plant response rating: 0
Barnyardgrass [1]; 125 g ai/ha
  Plant response rating (0 to 100 scale), Barnyardgrass: 0
Barnyardgrass [1]; [4]
  Barnyardgrass plant response rating: 0
Barnyardgrass [1]; Postemergence, 500 g ai/ha
  Barnyardgrass plant response rating: 0
morningglory; 125 g ai/ha
  Plant response rating (0 to 100 scale), Morningglory: 0
morningglory; [4]
  Morningglory plant response rating: 0
morningglory; Postemergence, 500 g ai/ha
  Morningglory plant response rating: 0
Giant foxtail; 125 g ai/ha
  Plant response rating (0 to 100 scale), Foxtail, Giant: 0
Giant foxtail; [4]
  Foxtail, Giant plant response rating: 0
Giant foxtail; Postemergence, 500 g ai/ha
  Foxtail, Giant plant response rating: 0
Large crabgrass; 125 g ai/ha
  Plant response rating (0 to 100 scale), Crabgrass, Large: 0
Large crabgrass; [4]
  Crabgrass, Large plant response rating: 0
Large crabgrass; Postemergence, 500 g ai/ha
  Crabgrass, Large plant response rating: 0
corn; 125 g ai/ha
  Plant response rating (0 to 100 scale), Corn: 0
corn; [4]
  Corn plant response rating: 0
corn; Postemergence, 500 g ai/ha
  Corn plant response rating: 0
Surinam grass; 125 g ai/ha
  Plant response rating (0 to 100 scale), Surinam Grass: 0
Surinam grass; [4]
  Surinam Grass plant response rating: 0
Surinam grass; Postemergence, 500 g ai/ha
  Surinam Grass plant response rating: 0
velvetleaf; 125 g ai/ha
  Plant response rating (0 to 100 scale), Velvetleaf: 0
velvetleaf; [4]
  Velvetleaf plant response rating: 0
velvetleaf; Postemergence, 500 g ai/ha
  Velvetleaf plant response rating: 0
rice
  Rice plant response rating: 20
wheat; [5]
  Wheat plant response rating: 0
wheat; [6]
  Wheat plant response rating: 0
wheat; [7]
  Wheat plant response rating: 0
pigweed; 125 g ai/ha
  Plant response rating (0 to 100 scale), Pigweed: 0
pigweed; [4]
  Pigweed plant response rating: 0
pigweed; Postemergence, 500 g ai/ha
  Pigweed plant response rating: 0
Barnyardgrass [2]
  Barnyardgrass plant response rating: 0
blackgrass; [4]
  Blackgrass plant response rating: 0
blackgrass; Postemergence, 500 g ai/ha
  Blackgrass plant response rating: 0
lambsquarters; 125 g ai/ha
  Plant response rating (0 to 100 scale), Lambsquarters: 0
lambsquarters; [4]
  Lambsquarters plant response rating: 0
lambsquarters; Postemergence, 500 g ai/ha
  Lambsquarters plant response rating: 0
[3]
  Sedge, Umbrella plant response rating: 0

## Cc1nn(C(C)C)nc1C(=O)Nc1cc(C(=O)N2CC=CC2)ccc1F [Compound 402]
cocklebur; 125 g ai/ha
  Plant response rating (0 to 100 scale), Cocklebur: 0
cocklebur; [4]
  Cocklebur plant response rating: 0
cocklebur; Postemergence, 500 g ai/ha
  Cocklebur plant response rating: 0
Wild oat; [4]
  Oat, Wild plant response rating: 0
Wild oat; Postemergence, 500 g ai/ha
  Oat, Wild plant response rating: 0
ducksalad
  Ducksalad plant response rating: 20
Barnyardgrass [1]; 125 g ai/ha
  Plant response rating (0 to 100 scale), Barnyardgrass: 0
Barnyardgrass [1]; [4]
  Barnyardgrass plant response rating: 0
Barnyardgrass [1]; Postemergence, 500 g ai/ha
  Barnyardgrass plant response rating: 0
morningglory; 125 g ai/ha
  Plant response rating (0 to 100 scale), Morningglory: 0
morningglory; [4]
  Morningglory plant response rating: 0
morningglory; Postemergence, 500 g ai/ha
  Morningglory plant response rating: 0
Giant foxtail; 125 g ai/ha
  Plant response rating (0 to 100 scale), Foxtail, Giant: 0
Giant foxtail; [4]
  Foxtail, Giant plant response rating: 0
Giant foxtail; Postemergence, 500 g ai/ha
  Foxtail, Giant plant response rating: 20
Large crabgrass; 125 g ai/ha
  Plant response rating (0 to 100 scale), Crabgrass, Large: 0
Large crabgrass; [4]
  Crabgrass, Large plant response rating: 0
Large crabgrass; Postemergence, 500 g ai/ha
  Crabgrass, Large plant response rating: 10
corn; 125 g ai/ha
  Plant response rating (0 to 100 scale), Corn: 0
corn; [4]
  Corn plant response rating: 0
corn; Postemergence, 500 g ai/ha
  Corn plant response rating: 0
Surinam grass; 125 g ai/ha
  Plant response rating (0 to 100 scale), Surinam Grass: 0
Surinam grass; [4]
  Surinam Grass plant response rating: 0
Surinam grass; Postemergence, 500 g ai/ha
  Surinam Grass plant response rating: 20
velvetleaf; 125 g ai/ha
  Plant response rating (0 to 100 scale), Velvetleaf: 0
velvetleaf; [4]
  Velvetleaf plant response rating: 20
velvetleaf; Postemergence, 500 g ai/ha
  Velvetleaf plant response rating: 30
rice
  Rice plant response rating: 10
wheat; [5]
  Wheat plant response rating: 0
wheat; [6]
  Wheat plant response rating: 10
wheat; [7]
  Wheat plant response rating: 0
pigweed; 125 g ai/ha
  Plant response rating (0 to 100 scale), Pigweed: 0
pigweed; [4]
  Pigweed plant response rating: 0
pigweed; Postemergence, 500 g ai/ha
  Pigweed plant response rating: 10
Barnyardgrass [2]
  Barnyardgrass plant response rating: 10
blackgrass; [4]
  Blackgrass plant response rating: 0
blackgrass; Postemergence, 500 g ai/ha
  Blackgrass plant response rating: 0
lambsquarters; 125 g ai/ha
  Plant response rating (0 to 100 scale), Lambsquarters: 0
lambsquarters; [4]
  Lambsquarters plant response rating: 30
lambsquarters; Postemergence, 500 g ai/ha
  Lambsquarters plant response rating: 40
[3]
  Sedge, Umbrella plant response rating: 70

Source: patent US20060069132A1, “Azolecarboxamide herbicides” (priority 2004, published 2006)
